Values quoted from earlier work in patent publication US11413229B2, “Oral plaque dispersion agent” (KAO CORPORATION, priority 2016, dated 2022).

Conditions: at 20° C.

- solubility to water: 60 g/100 mL
SMILES: CC(CO)(CO)CO [Trimethylolethane, 1,1,1-tris(hydroxymethyl)ethane]
